Source: PMC12888861, “Antibacterial activity of enmetazobactam against Acinetobacter spp.: a molecular dissection of mechanism of action and resistance determinants” (Antimicrobial Agents and Chemotherapy, 2025)

System: carbapenem-susceptible A. baumannii isolates (n = 54)
Experiment: MIC, broth microdilution (EUCAST), carbapenem-susceptible A. baumannii isolates
Type: cell-based, Acinetobacter baumannii
Settings: for MIC: in combinations ETZ fixed at 8 mg/L
From the text: The bacterial strains used in this study comprised 208 clinical isolates from the Spanish National Acinetobacter spp. 2020 Multicenter Collection, which was previously characterized in detail by our research group, including whole-genome sequencing, phylogenetics studies, clonal dynamics, and resistance mechanisms ([2], [29]). Additionally, a collection of A. baumannii ATCC 17978 transformants coding the blaOXA-23, blaOXA-24/40, blaOXA-51, blaOXA-58, blaOXA-143, and blaOXA-201 genes, previously constructed and described by our group ([30]), was used to determine the activity of enmetazobactam against strains carrying the main CHDLs of A. baumannii.
The antimicrobial susceptibility of the 208 Acinetobacter spp. isolates was assessed using the broth microdilution method, as described in the European Committee on Antimicrobial Susceptibility Testing (EUCAST) v.15 guidelines (http://www.eucast.org/clinical_breakpoints). […] MICs for enmetazobactam alone were assessed as well. […] Subsequently, MIC testing was also conducted with a collection of A. baumannii ATCC 17978 transformants expressing clinically relevant OXA-like carbapenemase genes.
The A. baumannii ATCC 19606 strain was used as the reference strain in all susceptibility experiments, in duplicate assays. Antibiotics were purchased from Sigma-Aldrich, except enmetazobactam and durlobactam, which were obtained from Advanz Pharma and MedChemExpress, respectively.

[1] = Acinetobacter baumannii, carbapenem-susceptible A. baumannii isolates (n = 54), ETZ fixed 8 mg/L in combinations

**Q.** How did the MIC (Acinetobacter baumannii, isolate Ab81, ST 25, ADC-79, OXA-64) turn out when `C[C@@H](O)[C@H]1C(=O)N2C(C(=O)O)=C(SCCN=CN)C[C@H]12` [imipenem] was run?
**A.** The MIC was 0.12 µg/mL.

**Q.** What about the MIC (Acinetobacter baumannii, isolate Ab93, ST 25, ADC-79, OXA-64) of the same compound?
**A.** Its MIC is 0.12 µg/mL.

**Q.** What about the MIC (Acinetobacter baumannii, isolate Ab95, ST 582, ADC-5, OXA-317) of the same compound?
**A.** Its MIC is 0.12 µg/mL.

**Q.** And the MIC (Acinetobacter baumannii, isolate Ab96, ST 582, ADC-5, OXA-317)?
**A.** The MIC was 0.12 µg/mL.

**Q.** What about the MIC (Acinetobacter baumannii, isolate Ab100, ST 145, ADC-58, OXA-343) of the same compound?
**A.** The MIC was 0.12 µg/mL.

**Q.** What about the MIC (Acinetobacter baumannii, isolate Ab110, ST 1623, ADC-3, OXA-70) of the same compound?
**A.** The MIC was 0.25 µg/mL.

**Q.** And the MIC (Acinetobacter baumannii, isolate Ab112, ST 193, ADC-like, OXA-120)?
**A.** Its MIC is 0.12 µg/mL.

**Q.** What about the MIC (Acinetobacter baumannii, isolate Ab124, ST 2176, ADC-2, OXA-64) of the same compound?
**A.** Its MIC is 0.12 µg/mL.

**Q.** What about the MIC (Acinetobacter baumannii, isolate Ab127, ST 2176, ADC-2, OXA-64) of the same compound?
**A.** Its MIC is 0.12 µg/mL.

**Q.** And the MIC (Acinetobacter baumannii, isolate Ab128, ST 2176, ADC-2, OXA-64)?
**A.** The MIC was 0.12 µg/mL.

**Q.** And the MIC (Acinetobacter baumannii, isolate Ab130, ST 32, ADC-79, OXA-100)?
**A.** The MIC was 0.12 µg/mL.

**Q.** What about the MIC (Acinetobacter baumannii, isolate Ab131, ST 687, ADC-like, OXA-208) of the same compound?
**A.** The MIC was 0.12 µg/mL.

**Q.** What about the MIC (Acinetobacter baumannii, isolate Ab132, ST 1112, ADC-79, OXA-89) of the same compound?
**A.** The MIC was 0.12 µg/mL.

**Q.** What about the MIC (Acinetobacter baumannii, isolate Ab136, ST 2183, ADC-like, OXA-66) of the same compound?
**A.** Its MIC is 0.12 µg/mL.

**Q.** And the MIC (Acinetobacter baumannii, isolate Ab139, ST 54, ADC-like, OXA-365)?
**A.** The MIC was 0.25 µg/mL.

**Q.** What about the MIC (Acinetobacter baumannii, isolate Ab142, ST 1, ADC-like, OXA-69) of the same compound?
**A.** Its MIC is 1 µg/mL.

**Q.** And the MIC (Acinetobacter baumannii, isolate Ab143, ST 1328, ADC-76, OXA-408)?
**A.** The MIC was 0.12 µg/mL.

**Q.** What about the MIC (Acinetobacter baumannii, isolate Ab149, ST 1112, ADC-6, OXA-407) of the same compound?
**A.** Its MIC is 0.25 µg/mL.

**Q.** What about the MIC (Acinetobacter baumannii, isolate Ab150, ST 2184, ADC-like, OXA-64) of the same compound?
**A.** The MIC was 0.25 µg/mL.

**Q.** What about the MIC (Acinetobacter baumannii, isolate Ab152, ST 132, ADC-2, OXA-120) of the same compound?
**A.** Its MIC is 0.25 µg/mL.

**Q.** And the MIC (Acinetobacter baumannii, isolate Ab158, ST 2034, ADC-2, OXA-217)?
**A.** The MIC was ≤ 0.06 µg/mL.

**Q.** And the MIC (Acinetobacter baumannii, isolate Ab163, ST 132, ADC-2, OXA-120)?
**A.** The MIC was ≤ 0.06 µg/mL.

**Q.** What about the MIC (Acinetobacter baumannii, isolate Ab167, ST 1623, ADC-like, OXA-345) of the same compound?
**A.** The MIC was 0.12 µg/mL.

**Q.** What about the MIC (Acinetobacter baumannii, isolate Ab168, ST 1470, ADC-75, OXA-402) of the same compound?
**A.** The MIC was 0.25 µg/mL.

**Q.** And the MIC (Acinetobacter baumannii, isolate Ab170, ST 2110, ADC-4, OXA-338)?
**A.** The MIC was 0.12 µg/mL.

**Q.** And the MIC (Acinetobacter baumannii, isolate Ab172, ST 2185, ADC-5, OXA-217)?
**A.** Its MIC is ≤ 0.06 µg/mL.

**Q.** And the MIC (Acinetobacter baumannii, isolate Ab185, ST 2, ADC-26, OXA-66)?
**A.** The MIC was 0.25 µg/mL.

**Q.** What about the MIC (Acinetobacter baumannii, isolate Ab187, ST 105, ADC-2, OXA-430) of the same compound?
**A.** Its MIC is ≤ 0.06 µg/mL.

**Q.** What about the MIC (Acinetobacter baumannii, isolate Ab188, ST 203, ADC-6, OXA-217, PDC-1) of the same compound?
**A.** The MIC was 0.12 µg/mL.

**Q.** What about the MIC (Acinetobacter baumannii, isolate Ab189, ST 1405, ADC-3, OXA-120) of the same compound?
**A.** The MIC was ≤ 0.06 µg/mL.

**Q.** What about the MIC (Acinetobacter baumannii, isolate Ab190, ST 2186, ADC-6, OXA-413) of the same compound?
**A.** The MIC was 0.25 µg/mL.

**Q.** And the MIC (Acinetobacter baumannii, isolate Ab193, ST 164, ADC-6, OXA-91)?
**A.** The MIC was ≤ 0.06 µg/mL.

**Q.** What about the MIC (Acinetobacter baumannii, isolate Ab195, ST 1, ADC-11, OXA-69) of the same compound?
**A.** The MIC was 0.12 µg/mL.

**Q.** And the MIC (Acinetobacter baumannii, isolate Ab200, ST 1336, ADC-2, OXA-51)?
**A.** Its MIC is 0.12 µg/mL.

**Q.** And the MIC (Acinetobacter baumannii, isolate Ab202, ST 1, ADC-11, OXA-69)?
**A.** Its MIC is 0.12 µg/mL.

**Q.** And the MIC (Acinetobacter baumannii, isolate Ab203, ST 221, ADC-6, OXA-88)?
**A.** The MIC was 0.12 µg/mL.

**Q.** What about the MIC (Acinetobacter baumannii, isolate Ab206, ST 2187, ADC-58, OXA-69) of the same compound?
**A.** Its MIC is 0.25 µg/mL.

**Q.** What about the MIC (Acinetobacter baumannii, isolate Ab209) of the same compound?
**A.** Its MIC is 0.25 µg/mL.

**Q.** And the MIC (Acinetobacter baumannii, isolate Ab213)?
**A.** The MIC was 0.12 µg/mL.

**Q.** And the MIC (Acinetobacter baumannii, isolate Ab218)?
**A.** The MIC was 0.25 µg/mL.

**Q.** And the MIC (Acinetobacter baumannii, isolate Ab220)?
**A.** The MIC was 0.25 µg/mL.

**Q.** What about the MIC50 [1] of the same compound?
**A.** The MIC50 was 0.12 µg/mL.

**Q.** What about the MIC90 [1] of the same compound?
**A.** Its MIC90 is 0.25 µg/mL.

**Q.** And the “MIC distribution 0.25” value (cumulative share of carbapenem-susceptible A. baumannii isolates (n = 54) at MIC 0.25 mg/L, ETZ fixed 8 mg/L in combinations)?
**A.** The value was 98.1.

**Q.** What about the “MIC distribution 0.5” value (cumulative share of carbapenem-susceptible A. baumannii isolates (n = 54) at MIC 0.5 mg/L, ETZ fixed 8 mg/L in combinations) of the same compound?
**A.** Its value is 98.1.

**Q.** And the “MIC distribution 1” value (cumulative share of carbapenem-susceptible A. baumannii isolates (n = 54) at MIC 1 mg/L, ETZ fixed 8 mg/L in combinations)?
**A.** The value was 100.

**Q.** And the “MIC distribution 2” value (cumulative share of carbapenem-susceptible A. baumannii isolates (n = 54) at MIC 2 mg/L, ETZ fixed 8 mg/L in combinations)?
**A.** Its value is 100.

**Q.** And the “MIC distribution 4” value (cumulative share of carbapenem-susceptible A. baumannii isolates (n = 54) at MIC 4 mg/L, ETZ fixed 8 mg/L in combinations)?
**A.** Its value is 100.

**Q.** And the “MIC distribution 8” value (cumulative share of carbapenem-susceptible A. baumannii isolates (n = 54) at MIC 8 mg/L, ETZ fixed 8 mg/L in combinations)?
**A.** The value was 100.

**Q.** And the “MIC distribution 16” value (cumulative share of carbapenem-susceptible A. baumannii isolates (n = 54) at MIC 16 mg/L, ETZ fixed 8 mg/L in combinations)?
**A.** The value was 100.

**Q.** And the “MIC distribution ≤0.06” value (cumulative share of carbapenem-susceptible A. baumannii isolates (n = 54) at MIC ≤0.06 mg/L, ETZ fixed 8 mg/L in combinations)?
**A.** Its value is 11.1.

**Q.** What about the “MIC distribution ≥32” value (cumulative share of carbapenem-susceptible A. baumannii isolates (n = 54) at MIC ≥32 mg/L, ETZ fixed 8 mg/L in combinations) of the same compound?
**A.** The value was 100.
